{"source": "patent US20210183467A1", "about": "“SYSTEM AND METHOD FOR USING MICROBIOME TO DE-RISK DRUG DEVELOPMENT” (YALE UNIVERSITY, priority 2018, published 2021)", "key": {"[1]": {"assay": "Liver S9 enzyme assay of conversion to BVU", "format": "in vitro ADME", "method": "Human and murine S9 liver fractions are purchased from Thermo Fisher Scientific (HMS9L and MSMCPL, respectively). Enzyme assays are performed for the deglycosylation of arabinosyluracil derivatives. In brief, assays are performed at 37° C. Reaction volumes are 150 μL with liver S9 fractions at 5 μg/μL and BRV or SRV at 100 μM in 10 mM phosphate buffer (pH 7.4). Reactions are initiated by addition of drugs to pre-warmed reaction mixture. 10 μL samples are collected and quenched in 10 μL acetonitrile on ice at 0, 5, 10, 15, 20, 30, 45, 60, 90, 120, 180, 270, and 360 min after initiation. Substrates and reaction product are extracted and quantified by LC-MS as described below."}, "[2]": {"conditions": "model parameter; Clinical Virology 3rd edition, 2009; cited from earlier work"}, "[3]": {"tested_on": "human gut microbial communities", "assay": "Bacterial conversion assay with fecal microbial communities", "format": "in vitro ADME", "conditions": "human unfractionated fecal microbial communities", "method": "(§1) All handling of human materials is conducted with the permission of the Yale Human Investigation Committee. Samples are collected and stored as described in A. L. Goodman et al., Extensive personal human gut microbiota culture collections characterized and manipulated in gnotobiotic mice, Proceedings of the National Academy of Sciences,108, 6252-6257 (2011), the content of which is incorporated by reference herein. In brief, a single fecal sample is collected from each healthy human donor, stored on ice for less than 12 hours prior to transport into an anaerobic chamber (Coy Laboratory Products) and homogenization in pre-reduced GMM containing 20% glycerol. Aliquots of 0.5 mL volume are anaerobically prepared in 1.8 mL glass E-Z vials (Wheaton Industries) and stored at −80° C. Murine fecal samples are collected from individually caged animals (2 males and 2 females) and are stored at −80° C. without further processing.\n(§2) Frozen stocks are re-suspended in 4 mL pre-reduced GMM and incubated anaerobically at 37° C. for 14 h. Cultures are diluted (1:10) in 20% pre-reduced GMM containing BRV or SRV at 100 μM and further incubated at 25° C. anaerobically. […] Substrates and reaction product are extracted and quantified by LC-MS as described below."}, "[4]": {"tested_on": "murine gut microbial communities", "assay": "Bacterial conversion assay with fecal microbial communities", "format": "in vitro ADME", "conditions": "murine unfractionated fecal microbial communities", "method": "as §1, §2"}, "[5]": {"format": "in vivo, C57BL/6J mice", "method": "Germfree mice were colonized with the wildtype and mutant strains. BRV was administered.\nIndividually caged GF C57BL/6J mice are colonized by oral gavage with 200 μL of an overnight GMM culture of either B. thetaiotaomicron wild type or bt4554 strains to generate GN^WT or GN^MUT mice, respectively. After 4 days, bacterial loads are determined by CFU plating on BHI blood agar prior to drug treatment.\nEach drug treatment is performed using 20 treated and 5 to 6 untreated animals. Both genders are equally represented in each group and evenly distributed across the different time points for sample collection. Animals (n=5 per time point and group) are given 100 mg/kg body weight of BRV or SRV as suspensions in PBS (200 μL PBS for controls) by oral gavage. One blood sample is collected from each animal at an early time point (0.5, 1, 1.5, or 2 hours after drug administration) by submandibular bleeding. At 3, 5, 7, and 9 h, mice are sacrificed and tissue samples are collected into sample tubes and snap-frozen. Fecal samples are collected before euthanization and re-suspended in PBS (1 mL) through vigorous shaking. 20 μL are then plated on BHI blood plates and incubated aerobically and anaerobically at 37° C. to check GF, GN^WT, and GN^MUT animals for contamination. Monocolonized mice are also checked for contamination by PCR using primers 7 and 8."}, "Bacteroides ovatus": {"tested_on": "Bacteroides ovatus", "format": "in vitro ADME", "method": "Frozen stocks of bacteria (Table 4) are plated on BHI blood agar and incubated at 37° C. under anaerobic conditions. Single colonies are inoculated into 4 mL pre-reduced GMM and incubated anaerobically at 37° C. for 24 h (Akkermansia muciniphila for 48 hours). BRV conversion assays are performed with the resulting dense cultures, as described above for bacterial communities."}}, "data": [{"smiles": "O=c1[nH]c(=O)n([C@H]2C[C@H](O)[C@@H](CO)O2)cc1/C=C/Br", "note": "[BRV, Brivudine]", "values": [{"measurement": "conversion of BRV to BVU", "setting": "[1]; human S9 liver fractions", "value": "stoichiometric conversion to BVU"}, {"measurement": "conversion of BRV to BVU", "setting": "[1]; murine S9 liver fractions", "value": "stoichiometric conversion to BVU"}, {"measurement": "F, bioavailability of the drug", "setting": "[2]", "value": 0.3, "unit": "fraction"}, {"measurement": "conversion of BRV to BVU", "setting": "[3]", "value": "stoichiometric conversion to BVU"}, {"measurement": "conversion of BRV to BVU", "setting": "[4]", "value": "stoichiometric conversion to BVU"}, {"measurement": "absorption of BRV from the lower intestine", "setting": "[5]; GN^MUT mice excrete the drug in feces", "value": "poorly absorbed"}, {"measurement": "metabolism of cecal BRV by wildtype B. thetaiotaomicron", "setting": "[5]; GN^WT mice", "value": "completely metabolizes"}, {"measurement": "thymine in the liver", "setting": "[5]; GN^WT mice after BRV administration", "value": "thymine accumulation in the liver"}, {"measurement": "BRV serum kinetics", "setting": "[5]; GN^WT versus GN^MUT mice", "value": "indistinguishable"}, {"measurement": "capacity to convert BRV to BVU", "setting": "Bacteroides ovatus", "value": "highest metabolic activity"}]}]}
